Patent publication US20240376085A1 (Janssen Pharmaceutica NV, priority 2021, published 2024)

Tests used:
[1] = test system: IL-17A-induced G-CSF production in human normal keratinocyte (NHK); experiment: NHK assay: IL-17A-induced G-CSF production in normal human keratinocytes; format: cell-based; conditions: Homo sapiens, Keratinocyte, 24 h, IL-17A 5 ng/mL, average if tested more than once
Outline: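 Stimulus rhIL-17A 5 ng/mL final, premixed 1 h rt with compound; adult NHK, 5% FBS, 0.2% DMSO. Viability by CellTiter-Glo vs DMSO.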

[2] = target: T1, IL-17A : IL-17RA binding (Homo sapiens, UniProt Q16552, K93Q); experiment: IL-17A(FLAG-tagged):IL-17RA(His-tagged) binding disruption Eu-HTRF assay, Protocol 1; conditions: FLAG-IL-17A 2.5 nM at 2x final concentration; average if tested more than once
T1 construct: Name: IL-17A-Flag
T1 sequence (Q16552 with tags, fused parts or gaps K93Q): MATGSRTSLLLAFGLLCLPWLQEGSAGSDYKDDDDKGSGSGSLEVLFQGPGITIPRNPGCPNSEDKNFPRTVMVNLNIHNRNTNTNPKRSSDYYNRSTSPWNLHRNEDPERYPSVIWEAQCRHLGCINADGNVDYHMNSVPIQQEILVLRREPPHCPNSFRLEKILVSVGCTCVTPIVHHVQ
Outline: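 IC50 came from a one-site competition fit of the acceptor/donor (665/620 nm) HTRF ratio. His-tagged IL-17RA, Eu-anti-FLAG and D2-anti-His were added after a 1 h rt compound preincubation with FLAG-tagged IL-17A dimer in PBS/0.01% Triton X-100, followed by 2 h at rt before reading.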

**Q.** Which results are given for `C[C@@H](NC(=O)CCC(F)(F)F)c1ccc2[nH]c([C@@H](NC(=O)c3ncn(CCC(F)(F)F)n3)C3CCC(F)(F)CC3)nc2c1` [Example 228, N—((S)-(4,4-Difluorocyclohexyl)(5-((R)-1-(4,4,4-trifluorobutanamido)ethyl)-1H-benzo[d]imidazol-2-yl)methyl)-1-(3,3,3-trifluoropropyl)-1H-1,2,4-triazole-3-carboxamide]?
**A.** IC50 [1]: > 0.1 µM; IC50 [2]: > 0.1 µM

**Q.** Which results are given for `Cc1nonc1C(=O)N[C@@H](CC(C)(C)C(F)F)c1nc2ccc([C@H](NC(=O)CC3CC(F)(F)C3)C3CC3)cc2[nH]1` [Example 233, N—((S)-1-(6-((R)-Cyclopropyl(2-(3,3-difluorocyclobutyl)acetamido)methyl)-1H-benzo[d]imidazol-2-yl)-4,4-difluoro-3,3-dimethylbutyl)-4-methyl-1,2,5-oxadiazole-3-carboxamide]?
**A.** IC50 [1]: > 0.1 µM; IC50 [2]: < 0.05 µM

**Q.** Which results are given for `CC(C)n1nccc1C(=O)N[C@@H](CC(C)(C)C(F)F)c1nc2ccc([C@H](NC(=O)CC3CC(F)(F)C3)C3CC3)cc2[nH]1` [Example 234, N—((S)-1-(6-((R)-Cyclopropyl(2-(3,3-difluorocyclobutyl)acetamido)methyl)-1H-benzo[d]imidazol-2-yl)-4,4-difluoro-3,3-dimethylbutyl)-1-isopropyl-1H-pyrazole-5-carboxamide]?
**A.** IC50 [1]: 0.05 to 0.1 µM; IC50 [2]: 0.05 to 0.1 µM

**Q.** Which results are given for `Cc1nonc1C(=O)N[C@@H](C[C@H]1CCC(F)(F)C1)c1nc2ccc([C@H](NC(=O)CC3CC(F)(F)C3)C3CC3)cc2[nH]1` [Example 235, N—((S)-1-(6-((R)-Cyclopropyl(2-(3,3-difluorocyclobutyl)acetamido)methyl)-1H-benzo[d]imidazol-2-yl)-2-((R)-3,3-difluorocyclopentyl)ethyl)-4-methyl-1,2,5-oxadiazole-3-carboxamide]?
**A.** IC50 [1]: > 0.1 µM; IC50 [2]: > 0.1 µM

**Q.** How did the IC50 [1] turn out when `CC(C)n1nccc1C(=O)N[C@@H](C[C@H]1CCC(F)(F)C1)c1nc2ccc([C@H](NC(=O)CC3CC(F)(F)C3)C3CC3)cc2[nH]1` [Example 236, N—((S)-1-(6-((R)-Cyclopropyl(2-(3,3-difluorocyclobutyl)acetamido)methyl)-1H-benzo[d]imidazol-2-yl)-2-((R)-3,3-difluorocyclopentyl)ethyl)-1-isopropyl-1H-pyrazole-5-carboxamide] was run?
**A.** > 0.1 µM

**Q.** What about the IC50 [2] of the same molecule?
**A.** > 0.1 µM

**Q.** For `Cc1nonc1C(=O)N[C@H](c1nc2ccc([C@H](NC(=O)CC3CC(F)(F)C3)C3CC3)cc2[nH]1)[C@@H]1C[C@@H]2[C@H](C1)C2(F)F` [Example 237, N—((S)-(6-((R)-Cyclopropyl(2-(3,3-difluorocyclobutyl)acetamido)methyl)-1H-benzo[d]imidazol-2-yl)((1R,3s,5S)-6,6-difluorobicyclo[3.1.0]hexan-3-yl)methyl)-4-methyl-1,2,5-oxadiazole-3-carboxamide], which IC50 [1] is on record?
**A.** 0.05 to 0.1 µM

**Q.** And the IC50 [2]?
**A.** < 0.05 µM

**Q.** Which IC50 [1] does the source give for `CC(C)n1nccc1C(=O)N[C@H](c1nc2ccc([C@H](NC(=O)CC3CC(F)(F)C3)C3CC3)cc2[nH]1)[C@@H]1C[C@@H]2[C@H](C1)C2(F)F` [Example 238, N—((S)-(6-((R)-Cyclopropyl(2-(3,3-difluorocyclobutyl)acetamido)methyl)-1H-benzo[d]imidazol-2-yl)((1R,3s,5S)-6,6-difluorobicyclo[3.1.0]hexan-3-yl)methyl)-1-isopropyl-1H-pyrazole-5-carboxamide] here?
**A.** < 0.05 µM

**Q.** And the IC50 [2]?
**A.** < 0.05 µM

**Q.** With `O=C(CC1CC(F)(F)C1)N[C@@H](c1ccc2nc([C@@H](NC(=O)c3nonc3C3CC3)[C@@H]3C[C@@H]4[C@H](C3)C4(F)F)[nH]c2c1)C1CC1` [Example 239, 4-Cyclopropyl-N—((S)-(6-((R)-cyclopropyl(2-(3,3-difluorocyclobutyl)acetamido)methyl)-1H-benzo[d]imidazol-2-yl)((1R,3s,5S)-6,6-difluorobicyclo[3.1.0]hexan-3-yl)methyl)-1,2,5-oxadiazole-3-carboxamide] as the molecule, how does the IC50 [1] read?
**A.** < 0.05 µM

**Q.** And the IC50 [2]?
**A.** < 0.05 µM

**Q.** How did the IC50 [1] turn out when `Cc1nonc1C(=O)N[C@H](c1nc2ccc([C@H](NC(=O)CC3CC(F)(F)C3)C3CC3)cc2[nH]1)[C@H]1C[C@@H]2[C@H](C1)C2(F)F` [Example 240, N—((S)-(6-((R)-Cyclopropyl(2-(3,3-difluorocyclobutyl)acetamido)methyl)-1H-benzo[d]imidazol-2-yl)((1R,3r,5S)-6,6-difluorobicyclo[3.1.0]hexan-3-yl)methyl)-4-methyl-1,2,5-oxadiazole-3-carboxamide] was run?
**A.** > 0.1 µM

**Q.** And the IC50 [2]?
**A.** < 0.05 µM

**Q.** Which results are given for `CC(C)n1nccc1C(=O)N[C@H](c1nc2ccc([C@H](NC(=O)CC3CC(F)(F)C3)C3CC3)cc2[nH]1)[C@H]1C[C@@H]2[C@H](C1)C2(F)F` [Example 241, N—((S)-(6-((R)-Cyclopropyl(2-(3,3-difluorocyclobutyl)acetamido)methyl)-1H-benzo[d]imidazol-2-yl)((1R,3r,5S)-6,6-difluorobicyclo[3.1.0]hexan-3-yl)methyl)-1-isopropyl-1H-pyrazole-5-carboxamide]?
**A.** IC50 [1]: < 0.05 µM; IC50 [2]: 0.05 to 0.1 µM

**Q.** Which IC50 [1] does the source give for `Cc1nonc1C(=O)N[C@@H](CC1(C(F)(F)F)CC1)c1nc2ccc([C@H](NC(=O)CC3CC(F)(F)C3)C3CC3)cc2[nH]1` [Example 242, N—((S)-1-(6-((R)-Cyclopropyl(2-(3,3-difluorocyclobutyl)acetamido)methyl)-1H-benzo[d]imidazol-2-yl)-2-(1-(trifluoromethyl)cyclopropyl)ethyl)-4-methyl-1,2,5-oxadiazole-3-carboxamide] here?
**A.** > 0.1 µM

**Q.** What about the IC50 [2] of the same molecule?
**A.** > 0.1 µM

**Q.** How did the IC50 [1] turn out when `CC(C)n1nccc1C(=O)N[C@@H](CC1(C(F)(F)F)CC1)c1nc2ccc([C@H](NC(=O)CC3CC(F)(F)C3)C3CC3)cc2[nH]1` [Example 243, N—((S)-1-(6-((R)-Cyclopropyl(2-(3,3-difluorocyclobutyl)acetamido)methyl)-1H-benzo[d]imidazol-2-yl)-2-(1-(trifluoromethyl)cyclopropyl)ethyl)-1-isopropyl-1H-pyrazole-5-carboxamide] was run?
**A.** 0.05 to 0.1 µM

**Q.** What about the IC50 [2] of the same molecule?
**A.** > 0.1 µM

**Q.** Which results are given for `Cc1nonc1C(=O)N[C@H](c1nc2ccc([C@H](NC(=O)CC3CC(F)(F)C3)C3CC3)cc2[nH]1)[C@@H]1CCCC(F)(F)C1` [Example 246, N—((S)-(6-((R)-Cyclopropyl(2-(3,3-difluorocyclobutyl)acetamido)methyl)-1H-benzo[d]imidazol-2-yl)((R)-3,3-difluorocyclohexyl)methyl)-4-methyl-1,2,5-oxadiazole-3-carboxamide]?
**A.** IC50 [1]: < 0.05 µM; IC50 [2]: < 0.05 µM

**Q.** With `Cc1nonc1C(=O)N[C@H](c1nc2ccc([C@H](NC(=O)CC3CC(F)(F)C3)C3CC3)cc2[nH]1)[C@H]1CCCC(F)(F)C1` [Example 247, N—((S)-(6-((R)-Cyclopropyl(2-(3,3-difluorocyclobutyl)acetamido)methyl)-1H-benzo[d]imidazol-2-yl)((S)-3,3-difluorocyclohexyl)methyl)-4-methyl-1,2,5-oxadiazole-3-carboxamide] as the molecule, how does the IC50 [1] read?
**A.** < 0.05 µM

**Q.** What about the IC50 [2] of the same molecule?
**A.** < 0.05 µM

**Q.** What does the source list for `Cc1nonc1C(=O)N[C@H](c1nc2ccc([C@H](NC(=O)CC3CC(F)(F)C3)C3CC3)cc2[nH]1)[C@@H]1C[C@H]2C[C@H]2C1` [Example 254, N—((S)-((1R,3s,5S)-Bicyclo[3.1.0]hexan-3-yl)(6-((R)-cyclopropyl(2-(3,3-difluorocyclobutyl)acetamido)methyl)-1H-benzo[d]imidazol-2-yl)methyl)-4-methyl-1,2,5-oxadiazole-3-carboxamide]?
**A.** IC50 [1]: > 0.1 µM; IC50 [2]: < 0.05 µM

**Q.** Which results are given for `CC(C)n1nccc1C(=O)N[C@H](c1nc2ccc([C@H](NC(=O)CC3CC(F)(F)C3)C3CC3)cc2[nH]1)[C@@H]1C[C@H]2C[C@H]2C1` [Example 255, N—((S)-((1R,3s,5S)-Bicyclo[3.1.0]hexan-3-yl)(6-((R)-cyclopropyl(2-(3,3-difluorocyclobutyl)acetamido)methyl)-1H-benzo[d]imidazol-2-yl)methyl)-1-isopropyl-1H-pyrazole-5-carboxamide]?
**A.** IC50 [1]: < 0.05 µM; IC50 [2]: 0.05 to 0.1 µM

**Q.** For `Cc1nonc1C(=O)N[C@@H](COC1CC(F)(F)C1)c1nc2ccc([C@H](NC(=O)CC3CC(F)(F)C3)C3CC3)cc2[nH]1` [Example 256, N—((R)-1-(6-((R)-Cyclopropyl(2-(3,3-difluorocyclobutyl)acetamido)methyl)-1H-benzo[d]imidazol-2-yl)-2-(3,3-difluorocyclobutoxy)ethyl)-4-methyl-1,2,5-oxadiazole-3-carboxamide], which IC50 [1] is on record?
**A.** > 0.1 µM

**Q.** And the IC50 [2]?
**A.** > 0.1 µM

**Q.** How did the IC50 [1] turn out when `CC(C)n1nccc1C(=O)N[C@@H](COC1CC(F)(F)C1)c1nc2ccc([C@H](NC(=O)CC3CC(F)(F)C3)C3CC3)cc2[nH]1` [Example 257, N—((R)-1-(6-((R)-Cyclopropyl(2-(3,3-difluorocyclobutyl)acetamido)methyl)-1H-benzo[d]imidazol-2-yl)-2-(3,3-difluorocyclobutoxy)ethyl)-1-isopropyl-1H-pyrazole-5-carboxamide] was run?
**A.** > 0.1 µM

**Q.** And the IC50 [2]?
**A.** > 0.1 µM

**Q.** Which IC50 [1] does the source give for `Cc1nonc1C(=O)N[C@H](c1nc2cc([C@H](NC(=O)CCC(F)(F)F)C3CC3)ccc2[nH]1)[C@@H]1CCCC(F)(F)C1` [Example 263, N—((S)-(5-((R)-Cyclopropyl(4,4,4-trifluorobutanamido)methyl)-1H-benzo[d]imidazol-2-yl)((R)-3,3-difluorocyclohexyl)methyl)-4-methyl-1,2,5-oxadiazole-3-carboxamide] here?
**A.** 0.05 to 0.1 µM

**Q.** And the IC50 [2]?
**A.** < 0.05 µM
